In the Bradley open melting point set (2014):
Several values for one entry are separate records, joined by “and”; a condition that tells them apart may be missing. Equal entries are not always repeated.

melting point | SMILES
64 °C | [O-][n+]1ccccc1 [pyridine n-oxide]
283 °C | O=C(O)c1cc(C(=O)O)c(C(=O)O)cc1C(=O)O [pyromellitic acid]
254 °C | Oc1ccc(/C=C/c2cc(O)cc(O)c2)cc1 [resveratrol]
181 °C | CC1=C(/C=C/C(C)=C/C=C/C(C)=C/C(=O)O)C(C)(C)CCC1 [retinoic acid]
51 °C | Oc1ccccc1C=Nc1ccccc1 [salicylideneaniline]
133 °C | O=C(O)CCCCCCCCC(=O)O [sebacic acid]
128 °C | CC1=C(C)C(=O)C(C(CCCCCC(=O)O)c2ccccc2)=C(C)C1=O (configuration not stated) [seratrodast]
183 °C | CC(=O)NS(=O)(=O)c1ccc(N)cc1 [sulfacetamide] [listing 1 of 2 here]
182 °C | CC(=O)NS(=O)(=O)c1ccc(N)cc1 [sulfacetamide] [listing 2 of 2 here]
255 °C | Nc1ccc(S(=O)(=O)Nc2ncccn2)cc1 [sulfadiazine]
236 °C | Cc1ccnc(NS(=O)(=O)c2ccc(N)cc2)n1 [sulfamerazine] [listing 1 of 2 here]
234 °C | Cc1ccnc(NS(=O)(=O)c2ccc(N)cc2)n1 [sulfamerazine] [listing 2 of 2 here]
92 °C | NS(N)(=O)=O [sulfamide]
192 °C | Nc1ccc(S(=O)(=O)Nc2ccccn2)cc1 [sulfapyridine]
226 °C | N#Cc1ccc(C#N)cc1 [terephthalonitrile]
-67 °C | CC(C)(C)N [tert-butylamine]
244 °C | Oc1c(Br)c(Br)c(O)c(Br)c1Br [tetrabromohydroquinone]
218 °C | O=C1C(c2ccccc2)=C(c2ccccc2)C(c2ccccc2)=C1c1ccccc1 [tetraphenylcyclopentadienone]
270 °C | O=C1CCC(N2C(=O)c3ccccc3C2=O)C(=O)N1 (configuration not stated) [thalidomide]

The next lines start with the compound.

SMILES | melting point
O=Cc1cccnc1 [pyridine-3-carboxaldehyde] | 8 °C
c1ccncc1 [pyridine] | -42 °C
C1CCNC1 [pyrrolidine] | -63 °C
O=C(O)c1ccc2ccccc2n1 [quinaldic acid] | 158 °C
O=Cc1cnc2ccccc2c1 [quinoline-3-carboxaldehyde] | 70 °C
N/N=C/c1ccccc1O [salicylaldehyde hydrazone] | 97 °C
O=C(O)c1ccccc1O [salicylic acid] | 158 °C and 157 °C
O=C(O)c1ccccc1O [salicylic_acid] | 160 °C
CCC(C)(C)C(=O)O[C@H]1C[C@@H](C)C=C2C=C[C@H](C)[C@H](CC[C@@H]3C[C@@H](O)CC(=O)O3)[C@H]21 [simvastatin] | 136 °C
CC(=O)S[C@@H]1CC2=CC(=O)CC[C@]2(C)[C@H]2CC[C@@]3(C)[C@@H](CC[C@@]34CCC(=O)O4)[C@H]12 [spironolactone] | 134 °C
CCCCCCCCCCCCCCCCCC(=O)O [stearic acid] | 71 °C
C(=Cc1ccccc1)c1ccccc1 [stilbene] | 126 °C
O=C(O)CCCCCCC(=O)O [suberic acid] | 143 °C
O=C(O)CCC(=O)O [succinic acid] | 188 °C and 187 °C
O=C(O)CCC(=O)O [succinic_acid] | 188 °C
N#CCCC#N [succinonitrile] | 56 °C
CC(C)(C)OO [tert-Butyl hydroperoxide] | -3 °C
CC(C)(C)O [tert-butyl alcohol, anhydrous] | 25 °C
O=C5\C=C4/C(C3CCC2(C(CCC2OC(=O)c1ccccc1)C3CC4)C)(C)CC5 (configuration not stated) [testosterone benzoate] | 195 °C
O=C4\C=C2/[C@]([C@H]1CC[C@@]3([C@@H](O)CC[C@H]3[C@@H]1CC2)C)(C)CC4 [testosterone] | 155 °C and 154 °C
C1CCOC1 [tetrahydrofuran] | -108 °C
C[SiH](C)O[Si](O[SiH](C)C)(O[SiH](C)C)O[SiH](C)C [tetrakis(dimethylsiloxy)silane] | -60 °C
CO[Si](OC)(OC)OC [tetramethoxysilane] | 5 °C
